Experimental data reported in patent US20240165174A1, “[…]-BASED COMPOSITION AND USES THEREOF FOR R[…]” (priority 2021, published 2024).

System: primary human monocytes
Experiment: Immunomodulation in human monocytes: cytokine/PGE2 release measured by ELISA after 24 h incubation
Type: cell-based
Settings: up to the highest concentration studied (0.68 μg/mL and 0.59 μg/mL respectively)
Procedure: Monocyte cell cultures: Primary human monocytes were prepared from the buffy coat of healthy human blood donors using a standardized procedure.
Cells were seeded in 24-well plates at a density of 2200000 cells/well for ELISA measurements. Monocytes were incubated with test elements (5 different concentrations) for 24 h. LPS (10 ng/mL, Salmonella typhimurium SL1181) served as a positive control for cytokine release. After 24 h, supernatants were removed, centrifuged and studied for IL-1β, MCP-1, IL-6, TNF and IL-8 concentrations by ELISA using the manufacturer's protocol (n=6, 3 different donors).

| Compound | effect on basal cytokine release in human monocytes |
| --- | --- |
| [Se] [selenium] | Neither selenium, vitamin B6 nor vitamin D3 had any effect |
| Cc1ncc(CO)c(CO)c1O.Cl [vitamin B6] | Neither selenium, vitamin B6 nor vitamin D3 had any effect |
| C=C1CC[C@H](O)C/C1=C/C=C1\CCC[C@]2(C)[C@@H]([C@H](C)CCCC(C)C)CC[C@@H]12 [vitamin D3, cholecalciferol] | Neither selenium, vitamin B6 nor vitamin D3 had any effect |
